Experimental data reported in ChEMBL document CHEMBL1201862, “PubChem BioAssay data set” (2004).
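96-well plates; 48 h exposure; 5 concentrations. Endpoints by linear interpolation between flanking doses. Not reached: highest tested concentration assigned. GI50: concentration for 50% inhibition of growth.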 The source made the active and inactive calls. Rule as the data show it: active = GI50 up to about 1.1 µM and inactive = higher.

Assays:
Assay in all cases: DTP human tumour cell line panel, 48 h
[1] = system: SW-620
[2] = system: SK-MEL-28
[3] = system: LOX IMVI
[4] = system: IGROV-1
[5] = system: SK-OV-3
[6] = system: SF-268
[7] = system: OVCAR-5
[8] = system: NCI-H23
[9] = system: U-251
[10] = system: UACC-257
[11] = system: HT-29
[12] = system: UACC-62
[13] = system: HCT-15
[14] = system: COLO 205
[15] = system: SN12C
[16] = system: OVCAR-8
[17] = system: EKVX
[18] = system: MOLT-4
[19] = system: CCRF-CEM
[20] = system: HCT-116

SMILES | GI50 [1] | GI50 [2] | GI50 [3] | GI50 [4] | GI50 [5] | GI50 [6] | GI50 [7] | GI50 [8] | GI50 [9] | GI50 [10] | GI50 [11] | GI50 [12] | GI50 [13] | GI50 [14] | GI50 [15] | GI50 [16] | GI50 [17] | GI50 [18] | GI50 [19] | GI50 [20]
N#CCc1c(F)c(F)c(F)c(F)c1F | > 100 µM (inactive) | > 100 µM (inactive) | > 100 µM (inactive) | > 100 µM (inactive) | > 100 µM (inactive) | > 100 µM (inactive) | > 100 µM (inactive) | > 100 µM (inactive) | > 100 µM (inactive) | > 100 µM (inactive) | > 100 µM (inactive) | > 100 µM (inactive) | > 100 µM | > 100 µM (inactive) | > 100 µM (inactive) | > 100 µM (inactive) | > 100 µM (inactive) | > 100 µM (inactive) | > 100 µM (inactive) | > 100 µM (inactive)
CC1CC/C(=C\c2ccc(Cl)cc2)C(=O)/C1=C\c1ccc(Cl)cc1 (stereo not given) | 41.3 µM (inactive) | 53.1 µM (inactive) | 31.8 µM (inactive) | 22.4 µM (inactive) | > 100 µM (inactive) | 34.2 µM (inactive) | 21.6 µM (inactive) | – | 39.9 µM (inactive) | 42.7 µM (inactive) | 30.9 µM (inactive) | 25.4 µM (inactive) | 22.4 µM | 32.1 µM (inactive) | 30.8 µM (inactive) | 30.1 µM (inactive) | 26.4 µM (inactive) | – | 41.9 µM (inactive) | 32.6 µM (inactive)
Cc1cccc(C(C)C)c1NC(=O)/C(Cc1c([N+](=O)[O-])cccc1[N+](=O)[O-])=N/NC(=O)CC#N | > 100 µM (inactive) | > 100 µM (inactive) | > 100 µM (inactive) | > 100 µM (inactive) | > 100 µM (inactive) | > 100 µM (inactive) | > 100 µM (inactive) | – | – | – | > 100 µM (inactive) | > 100 µM (inactive) | > 100 µM | > 100 µM (inactive) | – | – | 7.05 µM (inactive) | > 100 µM (inactive) | > 100 µM (inactive) | > 100 µM (inactive)
O=C1C[C@H](Sc2ccccc2)C2(OCCO2)[C@@H](Sc2ccccc2)C1 | 1.24 µM (inactive) | 2.38 µM (inactive) | 0.7 µM (active) | 1.5 µM (inactive) | 11.5 µM (inactive) | 1.87 µM (inactive) | 3.35 µM (inactive) | 2.09 µM (inactive) | 1.78 µM (inactive) | 1.8 µM (inactive) | 1.64 µM (inactive) | 2.01 µM (inactive) | 1.68 µM | 4.28 µM (inactive) | 2.7 µM (inactive) | 1.73 µM (inactive) | 4.52 µM (inactive) | 0.26 µM (active) | 0.282 µM (active) | 1.6 µM (inactive)
Cc1ccc(S(=O)(=O)N2c3ccccc3[C@H]3CCc4c([nH]c5ccccc45)[C@H]32)cc1 | > 100 µM (inactive) | > 100 µM (inactive) | > 100 µM (inactive) | 0.789 µM (active) | > 100 µM (inactive) | > 100 µM (inactive) | > 100 µM (inactive) | > 100 µM (inactive) | > 100 µM (inactive) | > 100 µM (inactive) | > 100 µM (inactive) | > 100 µM (inactive) | – | > 100 µM (inactive) | > 100 µM (inactive) | > 100 µM (inactive) | > 100 µM (inactive) | 66.1 µM (inactive) | 70 µM (inactive) | > 100 µM (inactive)
COC(=O)C(=O)Cc1nc2ccccc2o1 | – | > 100 µM (inactive) | > 100 µM (inactive) | – | > 100 µM (inactive) | > 100 µM (inactive) | > 100 µM (inactive) | > 100 µM (inactive) | > 100 µM (inactive) | > 100 µM (inactive) | > 100 µM (inactive) | > 100 µM (inactive) | > 100 µM | – | > 100 µM (inactive) | – | > 100 µM (inactive) | > 100 µM (inactive) | > 100 µM (inactive) | > 100 µM (inactive)
O=C(c1nc2ccc(Cl)cc2nc1O)C(O)c1ccccc1 (stereo not given) | > 100 µM (inactive) | 68.7 µM (inactive) | 34.8 µM (inactive) | > 100 µM (inactive) | > 100 µM (inactive) | 77.1 µM (inactive) | > 100 µM (inactive) | 92.9 µM (inactive) | > 10 µM (inactive) | > 100 µM (inactive) | > 100 µM (inactive) | 96.8 µM (inactive) | 98.6 µM | > 100 µM (inactive) | > 100 µM (inactive) | > 100 µM (inactive) | 22 µM (inactive) | 13.2 µM (inactive) | 2.32 µM (inactive) | > 100 µM (inactive)
N#C/C(=C1/Sc2c(nc[nH]c2=O)N1c1ccccc1)c1nc2ccccc2[nH]1 | > 100 µM (inactive) | > 100 µM (inactive) | – | > 100 µM (inactive) | > 100 µM (inactive) | > 100 µM (inactive) | > 100 µM (inactive) | > 100 µM (inactive) | > 100 µM (inactive) | > 100 µM (inactive) | > 100 µM (inactive) | > 100 µM (inactive) | > 100 µM | > 100 µM (inactive) | > 100 µM (inactive) | > 100 µM (inactive) | > 100 µM (inactive) | > 100 µM (inactive) | > 100 µM (inactive) | > 100 µM (inactive)
c1ccc2c(c1)CCCC/C2=N/OCC1CO1 (stereo not given) | 63.4 µM (inactive) | 61 µM (inactive) | 32.9 µM (inactive) | 50.8 µM (inactive) | – | 58.3 µM (inactive) | – | 41.8 µM (inactive) | 72.3 µM (inactive) | 46.5 µM (inactive) | 42.1 µM (inactive) | – | > 100 µM | 48.8 µM (inactive) | 51.5 µM (inactive) | 45.7 µM (inactive) | 56.9 µM (inactive) | 32.1 µM (inactive) | 46.5 µM (inactive) | 45 µM (inactive)
Cc1ccc(/N=N/C(=N\NC(=O)c2ccc(C)cc2)c2ccc(N(CCC#N)CCC#N)cc2C)cc1 | 39 µM (inactive) | 10.3 µM (inactive) | 35.7 µM (inactive) | 13.4 µM (inactive) | 65.6 µM (inactive) | 22.5 µM (inactive) | 50.5 µM (inactive) | 35.3 µM (inactive) | 14.8 µM (inactive) | 27.9 µM (inactive) | 19.4 µM (inactive) | 22.4 µM (inactive) | 33.5 µM | 48.2 µM (inactive) | – | 17.7 µM (inactive) | 43 µM (inactive) | 39.4 µM (inactive) | 49.4 µM (inactive) | –
O=C1c2ccccc2C(=O)N1/N=C1/SC(=N\c2ccccc2)/C(=N/c2ccccc2)N1c1ccccc1 | > 61.7 µM (inactive) | > 35.1 µM (inactive) | > 100 µM (inactive) | > 78.7 µM (inactive) | – | > 100 µM (inactive) | > 100 µM (inactive) | > 46.8 µM (inactive) | 24.9 µM (inactive) | > 100 µM (inactive) | > 50 µM (inactive) | > 95.5 µM (inactive) | > 47.5 µM | > 85.3 µM (inactive) | > 39.3 µM (inactive) | 40.1 µM (inactive) | > 76.9 µM (inactive) | > 65.8 µM (inactive) | > 51.3 µM (inactive) | 38.6 µM (inactive)
Cn1cc(NC(=O)[C@H]2CCC(N)=N2)cc1C(=O)NCCC(=N)N | > 100 µM (inactive) | > 100 µM (inactive) | > 100 µM (inactive) | > 100 µM (inactive) | > 100 µM (inactive) | > 100 µM (inactive) | – | > 100 µM (inactive) | > 100 µM (inactive) | > 100 µM (inactive) | > 100 µM (inactive) | > 100 µM (inactive) | – | > 100 µM (inactive) | > 100 µM (inactive) | > 100 µM (inactive) | > 100 µM (inactive) | > 100 µM (inactive) | > 100 µM (inactive) | > 100 µM (inactive)
Fc1ccc2c(c1)SC1=Nc3sc4cc(F)ccc4[n+]3CN12 | 27.3 µM (inactive) | 39.6 µM (inactive) | 18.4 µM (inactive) | 3.91 µM (inactive) | 22.4 µM (inactive) | 29.6 µM (inactive) | 25.7 µM (inactive) | 17.5 µM (inactive) | 16.7 µM (inactive) | 18.9 µM (inactive) | 28.8 µM (inactive) | 11.1 µM (inactive) | 29.5 µM | 26.9 µM (inactive) | 17.3 µM (inactive) | 14.6 µM (inactive) | 28 µM (inactive) | – | – | 22.5 µM (inactive)
CCO[C@]12C[C@H](OC)[C@@]3(O)CC(C1[C@H]3O)C13C4C2[C@H](OC)C1[C@](COC)(CN4CC)[C@H](O)C[C@@H]3OC (stereo not given in full) | > 100 µM (inactive) | > 100 µM (inactive) | > 100 µM (inactive) | > 100 µM (inactive) | > 100 µM (inactive) | > 100 µM (inactive) | > 100 µM (inactive) | > 100 µM (inactive) | – | > 100 µM (inactive) | > 100 µM (inactive) | > 100 µM (inactive) | > 100 µM | > 100 µM (inactive) | > 100 µM (inactive) | > 100 µM (inactive) | > 100 µM (inactive) | > 100 µM (inactive) | > 100 µM (inactive) | > 100 µM (inactive)
C=CC(C)C1(CCCOCc2ccccc2)C(=S)N2CCC3(CC24CCCC14)OCCO3 (stereo not given) | 31.6 µM (inactive) | 14.3 µM (inactive) | 54.3 µM (inactive) | > 100 µM (inactive) | > 100 µM (inactive) | 5.93 µM (inactive) | > 100 µM (inactive) | 6.1 µM (inactive) | 34.1 µM (inactive) | 9.68 µM (inactive) | 21.9 µM (inactive) | > 100 µM (inactive) | > 100 µM | 28.5 µM (inactive) | 91.6 µM (inactive) | 23.3 µM (inactive) | > 100 µM (inactive) | 3.93 µM (inactive) | 6.41 µM (inactive) | –
